The subject of series [1] is adrenergic receptors. Kind of series: Reversal of hypertensive effect of adrenalin (α-blocking), product of Example 8. The class given is in vivo. As to conditions: dogs.
Series [2] concerns dogs. Kind of series: Intravenous perfusion in dogs anaesthetised with Nembutal (product of Example 8). As to conditions: 2.5 mg/kg i.v. over 5 minutes. The class given is in vivo.
Method: (§2) During the series of pharmacological tests, the following parameters were used:
(§3) Arterial pressure (abbreviated to AP): this parameter, expressed in mm Hg) is evaluated in accordance with the usual conditions.
The product of Example 8 was perfused intravenously over the course of 5 minutes at doses of 2.5 and 5 mg/kg.
The test system of series [3] is femoral and vertebral arteries. The experiment in a line: Oral administration, arterial flow rates (product of Example 8). Particulars: orally. The class given is in vivo, dogs.
A further series relates to central vagus. Kind of series: Effect on the amines and reflexes: stimulation of the central vagus. As to conditions: in vivo. From the text:
(§1) In Table III below, the effects of the products on the amines and the reflexes have been summarised.

In series [4] the test system is adrenergic receptors. Kind of series: Inhibition/reversal of tension effects of adrenalin, intravenous (products of Examples 11 to 13). Particulars: i.v. The class given is in vivo. As for the experimental part:
the doses of CRL 40,150 from 0.5 to 4 mg/kg being administered successively.

A further series concerns DMPP. The experiment in a line: Effect on the amines and reflexes: DMPP. As to conditions: in vivo.
Source text: as §1

A further series concerns peripheral vagus. The experiment in a line: Effect on the amines and reflexes: stimulation of the peripheral vagus. As to conditions: in vivo.
Source text: as §1

Series [5] in a line: Acute intravenous toxicity in mice, products of Examples 10 to 13 (LD50). Particulars: mouse, in vivo, i.v., group consisting solely of female mice. From the text: (a) determined on a group of male and female mice,
(b) determined on a group consisting solely of female mice.

For another series, the system named is adrenalin. Kind of series: Effect on the amines and reflexes: adrenalin. As to conditions: in vivo.
Source text: as §1

The next series has as its system acetylcholine. Kind of series: Effect on the amines and reflexes: acetylcholine. Particulars: in vivo.
Source text: as §1

Series [6] deals with adrenergic receptors. The experiment in a line: Oral α-blocking activity in dogs (hypertensive effects of adrenalin). The class given is in vivo. As to conditions: orally.
A further series has as its system femoral artery. Kind of series: Vasodilating properties, injection into the femoral artery. The class given is in vivo, dogs. As for the experimental part:
On injection into the femoral artery, no effect is observed at doses of less than 100 μg/kg. […] At these doses, no effect is observed on the arterial pressure AP measured in accordance with the usual conditions.

The subject of series [7] is dogs. Kind of series: Coronary flow rate and haemodynamics in anaesthetised dogs, intravenous perfusion. The class given is in vivo.
Method: as §2, §3
Arterial resistance: this parameter (expressed in dynes/sec./cm^^-5) is calculated according to the ratio [formula]
Cardiac index: this parameter is expressed in ml/min./kg.
Systolic index: this parameter is equal to the ratio cardiac index/frequency.
Cardiac work: this parameter (expressed in kgm/min.) is calculated according to the relationship: Cardiac work = average AP (mm Hg) × 1.36 = cardiac output (1/min.) × 10^^-3.
Ratio dp/dt: this parameter corresponds to the variation in pressure expressed in mm Hg per second (in English: Rate of rise of left ventricular pressure).
The technique used to measure the ratio dp/dt is as follows:
The cardiac output is determined in Beagle dogs weighing 10 to 15 kg, anesthetised with pentobarbital, by injecting Cardiogreen (1 mg in 0.5 ml) into the right ventricle. A catheter introduced via the carotid artery into the aorta makes it possible to aspirate arterial blood at the rate of 25 ml/min. and to pass it in front of the photoelectric cell of a Beckman cardiodensitometer. The results are interpreted in accordance with the Hamilton method.
Series [8] concerns adrenergic receptors. Kind of series: Effect on responses to adrenalin, acetylcholine, isoprenalin and vagus stimulation (product of Example 2). The class given is in vivo, dogs.
In series [9] the test system is man. The experiment in a line: Clinical studies in man, tablets or injectable ampoules (product of Example 2). The class given is in vivo. Particulars: tablets (50 mg) or injectable ampoules (10 mg). From the text:
In clinical studies, good results were obtained in man by administering tablets such as: […]

In series [10] the test system is vertebral, femoral and mesenteric arteries. The experiment in a line: Vasodilating properties, intravenous administration, arterial flow rates. The class given is in vivo, dogs. As to conditions: for increase in vertebral flow rate: 0.25 mg/kg perfused i.v.
Method: When administered intravenously, the following results were observed:
A third test is carried out by injecting, without stopping, 0.5, 1, 2 and 4 mg/kg, that is to say a total of 7.5 mg/kg.
Another series relates to vertebral artery. Kind of series: Vasodilating properties, injection into the vertebral artery. The class given is in vivo, dogs. As for the experimental part:
On injection into the vertebral artery, no effect is observed at doses of less than 1 mg/kg. At a dose of 10 mg/kg, the flow rate increases by 37% and at a dose of 20 mg/kg it only increases by 27%. At these two doses, the arterial pressure decreases respectively by 14 and 28% although no effect had been observed during the injection into the femoral artery.

Series [11] has as its system adrenergic receptors. The experiment in a line: α-blocking activity, parenteral (LL 1756). The class given is in vivo.
The subject of series [12] is adrenergic receptors. Kind of series: Reversal of hypertensive effect of adrenalin (α-blocking), product of Example 3. The class given is in vivo, dogs.
Series [13] concerns man. Kind of series: Administration to man in vascular complaints (product of Example 3). Particulars: tablets containing 20 mg, 2 to 3 per day. The class given is in vivo.
The test system of series [14] is dogs. The experiment in a line: Cardiovascular properties of the product of Example 3 in dogs. The class given is in vivo.
Method: as §3
When administered intravenously to dogs at doses ranging from 1 mg to 13 mg/kg, the following results are observed:
The mark [15] stands for this setting: another test, 2 mg/kg at the very start.

Structures can show the parent of a compound that is named as a salt. Some results are limits rather than exact numbers.

In the case of `c1cnc(N2CCN(CC3COc4ccccc4O3)CC2)nc1` (stereo not drawn) [Example 8, 1-[2-(1,4-Benzodioxanyl)-methyl]-4-(2-pyrimidinyl)-piperazine dihydrochloride], in the series with adrenergic receptors [1], the “hypertensive effect of adrenalin” value is “the hypertensive effect of adrenalin is reversed, and this manifests itself in an α-blocking action”. In addition, in the series with dogs [2], the “decrease in the vertebral flow rate” value is listed as 19%, the “effect on the mesenteric flow rate” value is reported as “practically no effect” and the “increase in the differential arterial pressure” value is 50%. In the series on dogs [2] (increase), this compound registered a femoral vasodilating effect of 19% and a tachycardia of 19%. For the same compound, the “passage into the general circulation” value in [3] (10 mg/kg) is on record as “passes into the general circulation”. For the same compound, in series [3] (1 to 10 mg/kg, for 30 minutes), the “rise in femoral flow rate” value is 200% and the “rise in vertebral flow rate” value is 60%. Moreover, in series [3] (doses less than 100 μg/kg), the “flow rate of the femoral artery” value is listed as “does not alter” and the “flow rate of the vertebral artery” value is listed as “does not alter”.
In the case of `COc1cc(OC)c(C(=O)CN2CCN(CC3COc4ccccc4O3)CC2)c(OC)c1` (stereo not drawn) [Example 13, 1-[2-(1,4-Benzodioxanyl)-methyl]-4-(2,4,6-trimethoxyphenacyl)-piperazine dihydrochloride], the “Effect on the amines and reflexes: stimulation of the central vagus” value in the series on central vagus is reported as “slightly reduced”. In the series with adrenergic receptors [4], the “dose from which the hypertensive effect of adrenalin is reduced” value is given as not below 0.1 mg/kg. Further, the “dose from which the hypotensive effect appears” value in the series on adrenergic receptors [4] (average of three different experiments) is on record as not below 0.2 mg/kg. Also, the “Effect on the amines and reflexes: DMPP” value with DMPP is recorded as “effect reversed”. In the series on peripheral vagus, the “Effect on the amines and reflexes: stimulation of the peripheral vagus” value was “not changed”. In [5], the LD50 amounted to 58 mg/kg. For the same compound, in the series on adrenalin, the “Effect on the amines and reflexes: adrenalin” value was “reversal”. Further, the “Effect on the amines and reflexes: acetylcholine” value in the series with acetylcholine was “no change”.
For the compound `OCCN1CCN(CC2COc3ccccc3O2)CC1` (stereo not drawn) [Example 2, 1-[2-(1,4-Benzodioxanyl)-methyl]-4-(2-hydroxyethyl)-piperazine hemifumarate], in the series on adrenergic receptors [6] (5 mg/kg), the “hypertensive effects of adrenalin” value is on record as “decreases the said effects”. For the same compound, the “hypertensive effects of adrenalin” value in the series on adrenergic receptors [6] (7 mg/kg) is recorded as “inhibits them strongly”. Also, the “α + effect of adrenalin” value with adrenergic receptors [6] (10 mg/kg) was “overcomes the α + effect of adrenalin”. Also, the “effect on arterial pressure AP” value in the series on femoral artery (injection into femoral artery, 1, 10 and 20 mg/kg) was “no effect”. In the series with femoral artery (injection into femoral artery, doses less than 100 μg/kg), the “effect on flow rate of the femoral artery” value is “no effect”. Further, the “increase in coronary flow rate” value with dogs [7] (5 mg/kg i.v., 2 hours after the injection) was found to be 75%. In addition, in the series with dogs [7] (5 mg/kg i.v., after 1 hour), the “increase in coronary flow rate, maximum effect” value turned out to be 200%. Besides, in the series with dogs [7] (5 mg/kg i.v., for 1 hour), the “increase in maximum intraventricular pressure” value is 56% and the “increase in the differential arterial pressure” value is given as 40%. In addition, the “increase in ratio dp/dt” value in the series on dogs [7] (5 mg/kg i.v., for more than 1 hour) worked out at 180%. In the series on dogs [7] (5 mg/kg i.v., increase), this compound had a tachycardia of 40%. Further, in the series with dogs [7] (at a higher dose), the “effect on arterial pressure (summary)” value is on record as “at a higher dose, it is hypotensive”. Also, the “tachycardiac properties (summary)” value in the series on dogs [7] (at low doses) is given as “possesses tachycardiac properties at low doses”. For the same compound, the “cardiac work and coronary irrigation (summary)” value with dogs [7] (summary) was “increases the cardiac work and, in parallel fashion, it increases the coronary irrigation”. Further, in the series with adrenergic receptors [8] (dogs), the “effect of the stimulation of the peripheral vagus” value is given as “does not alter”, the “effects of the injection of acetylcholine” value is on record as “does not alter” and the “effects of the injection of isoprenalin” value is reported as “does not alter”. Further, the “α-lytic action (summary)” value in the series with adrenergic receptors [8] (summary) was “acts as an α-lytic product”. For the same compound, in the series with man [9], the clinical result was “good results”. Besides, in series [10] (setting [15]), the “duration of increase in vertebral flow rate” value is recorded as “more than one hour”, the “flow rate of the femoral artery” value is on record as “only increased greatly during the injection” and the “increase in flow rate of the vertebral artery” value stood at 87%. For the same compound, the “increase in vertebral flow rate” value in [10] (first test, end of perfusion) was determined as 14%. The “increase in vertebral flow rate” value in series [10] (first test, start of perfusion) came out at 90%. Also, the “effect of additional injections on the flow rate” value in series [10] (first test, additional 0.5 and 5 mg/kg) is on record as “no effect on the flow rate”. The “effect of subsequent injections on the flow rate” value in [10] (second test, subsequent 1 and 2 mg/kg) is “no effect on the flow rate”. In series [10] (summary), the “vasodilating action (summary)” value was “can dilate either the vertebral artery or the femoral artery or both”. Also, in series [10] (third test, 0.5, 1, 2 and 4 mg/kg i.v. without stopping), the femoral flow rate entry was “increased very much by the first injection, decreases during the subsequent injections”. The “increase in flow rate” value in the series on vertebral artery (10 mg/kg) worked out at 37%. The “increase in flow rate” value in the series with vertebral artery (20 mg/kg) was 27%. Further, the “effect on vertebral flow rate” value in the series on vertebral artery (doses less than 1 mg/kg) is “no effect”.
`OCCN1CCN(CC2COc3ccccc3O2)CC1` (stereo not drawn) [Example 1, 1-[2-(1,4-Benzodioxanyl)-methyl]-4-(2-hydroxyethyl)-piperazine dihydrochloride]: the α-blocking activity entry in the series on adrenergic receptors [11] was “α-blocking when administered parenterally”.
Take `OCC(O)CN1CCN(CC2COc3ccccc3O2)CC1` (stereo not drawn) [Example 3, 1-[2-(1,4-Benzodioxanyl)-methyl]-4-(2,3-dihydroxypropyl)-piperazine dihydrochloride]: in the series on adrenergic receptors [12] (conclusion), the “α-blocking action (conclusion)” value is given as “α-blocking agent”. Further, the “hypertensive effect of adrenalin” value with adrenergic receptors [12] (intraduodenal, 10 mg/kg) is “reversal of the hypertensive effect of adrenalin”. Also, the “result in vascular complaints” value with man [13] is “good results in vascular complaints”. Also, in the series with dogs [14] (i.v., 1 mg to 13 mg/kg), the “effect on the AP” value is given as “little effect on the AP or a slight hypotension” and the vertebral flow rate result was “no effect”. Besides, the “cardiovascular variations after intraduodenal administration” value in the series with dogs [14] (intraduodenal, 10 and 50 mg/kg) is recorded as “the variations described after intravenous injection are found again”.

As a reminder, the LD50 is the dose at which mortality reaches 50%.

The record behind these values is patent US3959283A, “Amino-derivatives of 1,4-benzodioxan” (Laboratoire L. Lafon, priority 1974, dated 1976).
